Where two headings read alike, the source gives them in different places.
Experiments:
[1] = at 12 h after administration in MAD study, cited from earlier work
[2] = test system: postmenopausal women with osteoporosis or osteopenia; parameters: method as in PMID 21312264, PMID 23873670; conditions: OCEAN study, cited from earlier work
[3] = test system: postmenopausal women with osteoporosis or osteopenia; test: BMD increase (DXA) in the OCEAN study and linear regression against mean sCTX inhibition over 24 h; type: in vivo, human; conditions: at 1 year
Description: PK data at 50 mg BID, 100 mg QD and 300 mg QD were used from the 15-day multiple-dosing cohort in a phase 1 study of ONO-5334 IR tablets (MAD study, n = 96). The MAD study was a randomized, double-blind, single-center study conducted at the Kendle Clinical Pharmacology Unit, Utrecht, The Netherlands, from April to November 2006 (EudraCT: not applicable). The sigmoidal relationship (Emax model) between plasma ONO-5334 concentrations and sCTX inhibition was taken from a study using SR tablets of ONO-5334 (PKPD study, n = 10). The PKPD study was a phase 1, 2-part (4- and 2-way crossover), open-label, randomized trial conducted at Pharmaceutical Profiles, Ruddington, Nottingham, United Kingdom, from January 2008 to April 2008 (European Union Clinical Trials Register [EudraCT]: 2007–005206-47). Data for sCTX inhibition and increase in BMD after 1 year of treatment were taken from the OCEAN study (n = 285). […]
The relationship of sCTX inhibition for 24 h and the mean increase in BMD for the lumbar spine (L1-L4) and total hip after 1 year of treatment in the OCEAN study were analyzed. BMD in the OCEAN study was measured using dual-energy X-ray absorptiometry (DXA) (Prodigy, GE Lunar, Madison, WI, USA). […]

Solubility of ONO-5334 = type: physicochemical; conditions: at acidic pH
[4] = test system: postmenopausal women with osteoporosis or osteopenia; parameters: method as in PMID 21312264, PMID 23873670; conditions: 300 mg QD, OCEAN study; cited from earlier work
[5] = test system: serum C-telopeptide of type I collagen (sCTX); test: Simulation of sCTX inhibition from plasma ONO-5334 concentrations with sigmoidal Emax model; parameters: species or system human
Excerpt: PK data from the MAD study and the relationship between plasma ONO-5334 levels and sCTX inhibition in healthy postmenopausal women obtained from the PKPD study were used in simulation of the antiresorptive effect of ONO-5334 [29, 31]. Our previous PK data for 14 days after repeated administration were also used in the simulation. sCTX inhibition for doses and regimens in the OCEAN study were simulated using plasma ONO-5334 levels and the sigmoidal Emax model in the PKPD study (Fig. 1). The sigmoidal Emax model was fitted to data using log-transformed ONO-5334 plasma concentrations and effects on sCTX inhibition, using the following equation [32]. Effect=E0+Emax×C^r/EC50r+C^r

[6] = test system: serum C-telopeptide of type I collagen (sCTX); parameters: method as in PMID 26188109; conditions: PKPD study, SR tablets, cited from earlier work
[7] = parameters: method as in earlier work; conditions: at morning on 12 month in the OCEAN study, full analysis set, cited from earlier work
[8] = cited from earlier work

In the case of C[C@@H]1CS/C(=N\NC(=O)C(=O)[C@@H](NC(=O)C2CCCCCC2)C2CCOCC2)N1C [ONO-5334], the “Plasma ONO-5334 concentration (Mean ± SD)” value ([1]; 50 mg BID) is given as 1.82 ± 0.33 ng/mL, the “Plasma ONO-5334 concentration (Mean ± SD)” value ([1]; 100 mg QD) is given as 2.74 ± 0.99 ng/mL and the “Plasma ONO-5334 concentration (Mean ± SD)” value ([1]; 300 mg QD) is given as 14.5 ± 6.33 ng/mL. For the same compound, the “effect on BMD” value ([2]; 50 mg BID and 300 mg QD) was “increased BMD at all measured sites”, the “efficacy for increasing BMD compared to 50 mg BID and 300 mg QD” value ([2]; 100 mg QD) was “less efficacy” and the “maximum BMD increase (100% Emax for 24 h) calculated by linear regression” value ([3]; lumbar spine) was 4.85%. For the same compound, the “maximum BMD increase (100% Emax for 24 h) calculated by linear regression” value ([3]; total hip) was 3.05%, the solubility (Solubility of ONO-5334) was “high” and the safety [4] was “no safety concerns”. For the same compound, the “Cmax relative to the concentration required for 99% Emax” value ([5]; 50 mg BID) was 4 times, the “Cmax relative to the concentration required for 99% Emax” value ([5]; 100 mg QD) was 14 times and the “Cmax relative to the concentration required for 99% Emax” value ([5]; 300 mg QD) was 56 times. For the same compound, the “effect span (Emax) of sigmoidal Emax model for sCTX” value [6] was −54.0%, the “half-maximal effective concentration of ONO-5334 (EC50) for sCTX inhibition” value ([6]; plasma concentration) was 2.07 ng/mL and the “Plasma ONO-5334 concentration (Mean ± SD)” value ([7]; 50 mg BID) was 2.51 ± 1.60 ng/mL. The “Plasma ONO-5334 concentration (Mean ± SD)” value ([7]; 100 mg QD) was 4.51 ± 3.26 ng/mL, the “Plasma ONO-5334 concentration (Mean ± SD)” value ([7]; 300 mg QD) was 14.4 ± 10.6 ng/mL and the “PK parameters, Cmax and AUC, postprandial administration compared with a fasted state” value [8] was “do not differ significantly”. The “time for trough plasma ONO-5334 level to reach steady state” value ([8]; repeated administration, after the first administration, earlier phase I studies) was 2 days.

From publication PMC5477094, “Antiresorptive effect of a cathepsin K inhibitor ONO-5334 and its relationship to BMD increase in a phase II trial for postmenopausal osteoporosis” (BMC Musculoskeletal Disorders, 2017)
